Key:
[1] = biological target: Vascular endothelial growth factor receptor 2 (Homo sapiens, UniProt P35968); assay: Inhibition of KDR
[2] = biological target: Dual specificity mitogen-activated protein kinase kinase 2 (Homo sapiens) (UniProt P36507); assay: Inhibition of MEK2 assessed as enzyme activity at 1 uM relative to untreated control; set-up: scale not given: the % may be the effect or the level left
[3] = biological target: Serine/threonine-protein kinase MRCK alpha (Homo sapiens) (UniProt Q5VT25); assay: Inhibition of MRCKA assessed as enzyme activity at 1 uM relative to untreated control; set-up: scale not given: the % may be the effect or the level left
[4] = biological target: Macrophage-stimulating protein receptor (Homo sapiens) (UniProt Q04912); assay: Inhibition of MST1R assessed as enzyme activity at 1 uM relative to untreated control; set-up: scale not given: the % may be the effect or the level left
[5] = biological target: Serine/threonine-protein kinase 26 (Homo sapiens) (UniProt Q9P289); assay: Inhibition of MST4 assessed as enzyme activity at 1 uM relative to untreated control; set-up: scale not given: the % may be the effect or the level left
[6] = biological target: Mitogen-activated protein kinase kinase kinase 3 (Homo sapiens) (UniProt Q99759); assay: Inhibition of MAP3K3 assessed as enzyme activity at 1 uM relative to untreated control; set-up: scale not given: the % may be the effect or the level left
[7] = biological target: Calcium/calmodulin-dependent protein kinase type 1 (Homo sapiens) (UniProt Q14012); assay: Inhibition of CAMK1 assessed as enzyme activity at 1 uM relative to untreated control; set-up: scale not given: the % may be the effect or the level left
[8] = biological target: Calcium/calmodulin-dependent protein kinase type II subunit beta (Homo sapiens) (UniProt Q13554); assay: Inhibition of CAMK2B assessed as enzyme activity at 1 uM relative to untreated control; set-up: scale not given: the % may be the effect or the level left
[9] = biological target: Dual specificity protein kinase CLK1 (Homo sapiens) (UniProt P49759); assay: Inhibition of CLK1 assessed as enzyme activity at 1 uM relative to untreated control; set-up: scale not given: the % may be the effect or the level left
[10] = biological target: Focal adhesion kinase 1 (Homo sapiens) (UniProt Q05397); assay: Inhibition of PTK2 assessed as enzyme activity at 1 uM relative to untreated control; set-up: scale not given: the % may be the effect or the level left
[11] = biological target: Protein-tyrosine kinase 2-beta (Homo sapiens) (UniProt Q14289); assay: Inhibition of PTK2B assessed as enzyme activity at 1 uM relative to untreated control; set-up: scale not given: the % may be the effect or the level left
[12] = biological target: RAF proto-oncogene serine/threonine-protein kinase (Homo sapiens) (UniProt P04049); assay: Inhibition of RAF1 assessed as enzyme activity at 1 uM relative to untreated control; set-up: scale not given: the % may be the effect or the level left
[13] = biological target: Receptor-interacting serine/threonine-protein kinase 4 (Homo sapiens) (UniProt P57078); assay: Inhibition of RIPK4 assessed as enzyme activity at 1 uM relative to untreated control; set-up: scale not given: the % may be the effect or the level left
[14] = biological target: Ribosomal protein S6 kinase alpha-4 (Homo sapiens) (UniProt O75676); assay: Inhibition of RPS6KA4 kinase domain 1 assessed as enzyme activity at 1 uM relative to untreated control; set-up: scale not given: the % may be the effect or the level left
[15] = biological target: Ribosomal protein S6 kinase alpha-6 (Homo sapiens) (UniProt Q9UK32); assay: Inhibition of RPS6KA6 kinase domain 1 assessed as enzyme activity at 1 uM relative to untreated control; set-up: scale not given: the % may be the effect or the level left
[16] = biological target: Myosin light chain kinase family member 4 (Homo sapiens) (UniProt Q86YV6); assay: Inhibition of SgK085 assessed as enzyme activity at 1 uM relative to untreated control; set-up: scale not given: the % may be the effect or the level left
[17] = biological target: Ephrin type-A receptor 8 (Homo sapiens) (UniProt P29322); assay: Inhibition of EPHA8 assessed as enzyme activity at 1 uM relative to untreated control; set-up: scale not given: the % may be the effect or the level left
[18] = biological target: Ephrin type-B receptor 4 (Homo sapiens) (UniProt P54760); assay: Inhibition of EPHB4 assessed as enzyme activity at 1 uM relative to untreated control; set-up: scale not given: the % may be the effect or the level left
[19] = biological target: Mitogen-activated protein kinase 3 (Homo sapiens) (UniProt P27361); assay: Inhibition of ERK1 assessed as enzyme activity at 1 uM relative to untreated control; set-up: scale not given: the % may be the effect or the level left
[20] = biological target: Tyrosine-protein kinase Fer (Homo sapiens) (UniProt P16591); assay: Inhibition of FER assessed as enzyme activity at 1 uM relative to untreated control; set-up: scale not given: the % may be the effect or the level left
[21] = biological target: Fibroblast growth factor receptor 3 (Homo sapiens) (UniProt P22607); assay: Inhibition of FGFR3 assessed as enzyme activity at 1 uM relative to untreated control; set-up: scale not given: the % may be the effect or the level left
[22] = Inhibition of FLT3 ITD assessed as enzyme activity at 1 uM relative to untreated control; set-up: scale not given: the % may be the effect or the level left
[23] = biological target: Cyclin-G-associated kinase (Homo sapiens) (UniProt O14976); assay: Inhibition of GAK assessed as enzyme activity at 1 uM relative to untreated control; set-up: scale not given: the % may be the effect or the level left
[24] = biological target: Glycogen synthase kinase-3 beta (Homo sapiens) (UniProt P49841); assay: Inhibition of GSK3B assessed as enzyme activity at 1 uM relative to untreated control; set-up: scale not given: the % may be the effect or the level left
[25] = biological target: Discoidin domain-containing receptor 2 (Homo sapiens) (UniProt Q16832); assay: Inhibition of DDR2 assessed as enzyme activity at 1 uM relative to untreated control; set-up: scale not given: the % may be the effect or the level left
[26] = tested on: Epidermal growth factor receptor (Homo sapiens), P00533 [G719C]; assay: Inhibition of EGFR G719C mutant assessed as enzyme activity at 1 uM relative to untreated control; format: protein assay; set-up: scale not given: the % may be the effect or the level left
[27] = biological target: Serine/threonine-protein kinase PAK 4 (Homo sapiens) (UniProt O96013); assay: Inhibition of PAK4 assessed as enzyme activity at 1 uM relative to untreated control; set-up: scale not given: the % may be the effect or the level left
[28] = biological target: Serine/threonine-protein kinase PAK 6 (Homo sapiens) (UniProt Q9NQU5); assay: Inhibition of PAK6 assessed as enzyme activity at 1 uM relative to untreated control; set-up: scale not given: the % may be the effect or the level left
[29] = biological target: Cyclin-dependent kinase 16 (Homo sapiens) (UniProt Q00536); assay: Inhibition of PCTK1 assessed as enzyme activity at 1 uM relative to untreated control; set-up: scale not given: the % may be the effect or the level left
[30] = biological target: Cyclin-dependent kinase 14 (Homo sapiens) (UniProt O94921); assay: Inhibition of PFTK1 assessed as enzyme activity at 1 uM relative to untreated control; set-up: scale not given: the % may be the effect or the level left
[31] = biological target: Phosphatidylinositol 4-phosphate 5-kinase type-1 alpha (Homo sapiens) (UniProt Q99755); assay: Inhibition of PIP5K1A assessed as enzyme activity at 1 uM relative to untreated control; set-up: scale not given: the % may be the effect or the level left
[32] = biological target: Membrane-associated tyrosine- and threonine-specific cdc2-inhibitory kinase (Homo sapiens) (UniProt Q99640); assay: Inhibition of PKMYT1 assessed as enzyme activity at 1 uM relative to untreated control; set-up: scale not given: the % may be the effect or the level left
[33] = biological target: Serine/threonine-protein kinase PLK1 (Homo sapiens) (UniProt P53350); assay: Inhibition of PLK1 assessed as enzyme activity at 1 uM relative to untreated control; set-up: scale not given: the % may be the effect or the level left
[34] = biological target: Serine/threonine-protein kinase D1 (Homo sapiens) (UniProt Q15139); assay: Inhibition of PRKD1 assessed as enzyme activity at 1 uM relative to untreated control; set-up: scale not given: the % may be the effect or the level left
[35] = biological target: Serine/threonine-protein kinase 36 (Homo sapiens) (UniProt Q9NRP7); assay: Inhibition of STK36 assessed as enzyme activity at 1 uM relative to untreated control; set-up: scale not given: the % may be the effect or the level left
[36] = biological target: BDNF/NT-3 growth factors receptor (Homo sapiens) (UniProt Q16620); assay: Inhibition of TRKB assessed as enzyme activity at 1 uM relative to untreated control; set-up: scale not given: the % may be the effect or the level left
[37] = biological target: NT-3 growth factor receptor (Homo sapiens) (UniProt Q16288); assay: Inhibition of TRKC assessed as enzyme activity at 1 uM relative to untreated control; set-up: scale not given: the % may be the effect or the level left
[38] = biological target: Non-receptor tyrosine-protein kinase TYK2 (Homo sapiens) (UniProt P29597); assay: Inhibition of TYK2 kinase domain 1 assessed as enzyme activity at 1 uM relative to untreated control; set-up: scale not given: the % may be the effect or the level left

RAF proto-oncogene serine/threonine-protein kinase (Homo sapiens), sequence (P04049 whole entry): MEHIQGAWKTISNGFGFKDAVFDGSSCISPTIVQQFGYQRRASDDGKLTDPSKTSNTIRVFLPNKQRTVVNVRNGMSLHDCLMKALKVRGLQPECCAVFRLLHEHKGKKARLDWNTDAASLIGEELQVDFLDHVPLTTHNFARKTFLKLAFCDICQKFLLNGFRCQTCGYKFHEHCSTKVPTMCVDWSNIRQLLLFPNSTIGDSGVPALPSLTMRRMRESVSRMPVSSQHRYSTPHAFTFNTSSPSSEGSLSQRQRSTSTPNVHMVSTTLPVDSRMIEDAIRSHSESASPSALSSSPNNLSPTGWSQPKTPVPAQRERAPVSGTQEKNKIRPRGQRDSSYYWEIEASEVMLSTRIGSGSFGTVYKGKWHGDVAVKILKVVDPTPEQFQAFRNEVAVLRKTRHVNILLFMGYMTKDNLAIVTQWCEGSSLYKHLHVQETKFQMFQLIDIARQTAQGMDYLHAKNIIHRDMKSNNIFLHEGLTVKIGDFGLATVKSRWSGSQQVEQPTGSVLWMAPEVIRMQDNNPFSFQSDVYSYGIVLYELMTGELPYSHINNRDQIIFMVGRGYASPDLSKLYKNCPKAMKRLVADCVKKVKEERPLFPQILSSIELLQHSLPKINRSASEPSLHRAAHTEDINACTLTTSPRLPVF
Dual specificity mitogen-activated protein kinase kinase 2 (Homo sapiens), sequence (P36507 whole entry): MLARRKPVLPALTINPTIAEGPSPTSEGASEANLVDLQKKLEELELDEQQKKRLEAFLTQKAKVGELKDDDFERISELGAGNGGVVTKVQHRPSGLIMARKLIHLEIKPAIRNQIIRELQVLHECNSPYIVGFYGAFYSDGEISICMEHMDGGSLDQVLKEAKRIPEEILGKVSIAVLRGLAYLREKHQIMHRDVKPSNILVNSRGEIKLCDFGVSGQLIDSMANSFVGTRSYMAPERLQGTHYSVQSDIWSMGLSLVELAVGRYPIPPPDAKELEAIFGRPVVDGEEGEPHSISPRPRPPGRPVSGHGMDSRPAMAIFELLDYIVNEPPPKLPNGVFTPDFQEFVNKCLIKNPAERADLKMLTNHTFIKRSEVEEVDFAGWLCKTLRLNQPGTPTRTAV
Cyclin-dependent kinase 14 (Homo sapiens), sequence (O94921 whole entry): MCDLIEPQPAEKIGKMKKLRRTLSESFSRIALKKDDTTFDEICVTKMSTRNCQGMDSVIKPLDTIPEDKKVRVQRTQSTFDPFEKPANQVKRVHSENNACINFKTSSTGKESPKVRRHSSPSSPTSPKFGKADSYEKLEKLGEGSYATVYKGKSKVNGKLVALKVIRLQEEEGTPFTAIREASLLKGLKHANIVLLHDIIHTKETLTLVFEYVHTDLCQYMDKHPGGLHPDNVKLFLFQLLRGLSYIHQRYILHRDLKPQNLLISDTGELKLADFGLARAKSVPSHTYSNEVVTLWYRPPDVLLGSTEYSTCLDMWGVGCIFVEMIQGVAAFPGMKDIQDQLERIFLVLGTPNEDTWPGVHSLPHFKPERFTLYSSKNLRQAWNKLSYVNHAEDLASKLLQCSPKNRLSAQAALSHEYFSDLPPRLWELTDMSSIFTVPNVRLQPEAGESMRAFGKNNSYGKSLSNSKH
Discoidin domain-containing receptor 2 (Homo sapiens), sequence (Q16832 whole entry, the tested form may be a part): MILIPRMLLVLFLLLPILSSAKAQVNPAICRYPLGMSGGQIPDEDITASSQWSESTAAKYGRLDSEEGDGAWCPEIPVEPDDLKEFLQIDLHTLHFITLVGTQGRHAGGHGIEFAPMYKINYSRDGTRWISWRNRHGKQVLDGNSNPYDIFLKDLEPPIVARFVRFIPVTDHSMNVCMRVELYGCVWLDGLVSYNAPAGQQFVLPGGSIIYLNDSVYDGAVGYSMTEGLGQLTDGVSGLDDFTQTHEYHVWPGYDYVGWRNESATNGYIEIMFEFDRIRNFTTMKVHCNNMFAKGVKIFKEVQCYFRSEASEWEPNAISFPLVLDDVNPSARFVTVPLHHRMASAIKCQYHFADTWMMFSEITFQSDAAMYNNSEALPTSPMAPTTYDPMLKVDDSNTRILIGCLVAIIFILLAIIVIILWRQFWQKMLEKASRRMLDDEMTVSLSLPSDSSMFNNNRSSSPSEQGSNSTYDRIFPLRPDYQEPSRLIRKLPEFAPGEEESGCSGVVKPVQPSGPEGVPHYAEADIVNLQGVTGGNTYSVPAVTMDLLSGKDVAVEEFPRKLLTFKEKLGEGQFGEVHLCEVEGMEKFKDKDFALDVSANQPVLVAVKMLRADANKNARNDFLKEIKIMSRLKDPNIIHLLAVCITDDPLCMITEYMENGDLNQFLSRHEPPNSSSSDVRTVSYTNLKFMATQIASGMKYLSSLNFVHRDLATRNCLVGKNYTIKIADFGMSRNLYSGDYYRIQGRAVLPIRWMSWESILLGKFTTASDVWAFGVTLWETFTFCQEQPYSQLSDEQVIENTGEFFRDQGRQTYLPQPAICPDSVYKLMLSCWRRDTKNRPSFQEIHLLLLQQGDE
Serine/threonine-protein kinase PLK1 (Homo sapiens), sequence (P53350 whole entry): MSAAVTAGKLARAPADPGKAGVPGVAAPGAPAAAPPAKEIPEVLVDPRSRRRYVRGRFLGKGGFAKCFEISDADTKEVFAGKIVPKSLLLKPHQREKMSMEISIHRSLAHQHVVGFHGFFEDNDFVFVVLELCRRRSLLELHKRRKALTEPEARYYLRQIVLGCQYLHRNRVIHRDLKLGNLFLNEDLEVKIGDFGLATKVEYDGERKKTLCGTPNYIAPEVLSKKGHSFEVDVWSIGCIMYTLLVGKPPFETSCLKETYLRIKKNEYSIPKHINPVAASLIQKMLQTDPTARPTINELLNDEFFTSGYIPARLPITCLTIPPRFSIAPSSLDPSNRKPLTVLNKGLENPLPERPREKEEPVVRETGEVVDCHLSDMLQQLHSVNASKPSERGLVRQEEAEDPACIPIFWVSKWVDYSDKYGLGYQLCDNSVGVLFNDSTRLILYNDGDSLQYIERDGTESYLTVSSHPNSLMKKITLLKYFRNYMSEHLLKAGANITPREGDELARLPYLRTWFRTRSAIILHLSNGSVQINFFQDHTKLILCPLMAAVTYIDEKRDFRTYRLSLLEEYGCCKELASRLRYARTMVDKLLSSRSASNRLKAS
Dual specificity protein kinase CLK1 (Homo sapiens), sequence (P49759 whole entry, looked up): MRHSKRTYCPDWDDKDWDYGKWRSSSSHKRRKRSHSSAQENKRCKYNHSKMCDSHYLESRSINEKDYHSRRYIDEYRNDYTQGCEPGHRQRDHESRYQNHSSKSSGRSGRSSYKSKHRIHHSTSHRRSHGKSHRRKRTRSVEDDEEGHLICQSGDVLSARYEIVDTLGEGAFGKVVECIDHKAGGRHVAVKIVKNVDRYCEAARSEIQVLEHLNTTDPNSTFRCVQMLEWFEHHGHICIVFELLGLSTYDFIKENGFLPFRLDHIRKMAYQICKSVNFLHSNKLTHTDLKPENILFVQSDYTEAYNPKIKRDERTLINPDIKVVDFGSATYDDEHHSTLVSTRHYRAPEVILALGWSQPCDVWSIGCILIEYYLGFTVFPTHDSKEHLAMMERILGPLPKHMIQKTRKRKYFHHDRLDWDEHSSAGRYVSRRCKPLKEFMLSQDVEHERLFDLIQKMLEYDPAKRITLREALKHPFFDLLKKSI
Membrane-associated tyrosine- and threonine-specific cdc2-inhibitory kinase (Homo sapiens), sequence (Q99640 whole entry): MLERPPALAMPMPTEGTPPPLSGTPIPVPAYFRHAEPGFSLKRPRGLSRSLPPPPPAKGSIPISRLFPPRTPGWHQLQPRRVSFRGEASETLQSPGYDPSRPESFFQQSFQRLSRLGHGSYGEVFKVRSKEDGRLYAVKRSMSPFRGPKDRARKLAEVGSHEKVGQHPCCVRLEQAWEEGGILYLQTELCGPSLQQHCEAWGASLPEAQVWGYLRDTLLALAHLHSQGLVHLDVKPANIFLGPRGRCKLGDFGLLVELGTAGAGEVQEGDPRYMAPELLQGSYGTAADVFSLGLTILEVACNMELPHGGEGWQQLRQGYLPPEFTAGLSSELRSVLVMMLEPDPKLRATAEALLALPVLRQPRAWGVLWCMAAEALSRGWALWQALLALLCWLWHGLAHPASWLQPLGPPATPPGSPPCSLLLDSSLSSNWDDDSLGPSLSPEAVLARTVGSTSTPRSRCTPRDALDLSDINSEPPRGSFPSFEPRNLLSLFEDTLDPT
Fibroblast growth factor receptor 3 (Homo sapiens), sequence (P22607 23-806 limits assumed): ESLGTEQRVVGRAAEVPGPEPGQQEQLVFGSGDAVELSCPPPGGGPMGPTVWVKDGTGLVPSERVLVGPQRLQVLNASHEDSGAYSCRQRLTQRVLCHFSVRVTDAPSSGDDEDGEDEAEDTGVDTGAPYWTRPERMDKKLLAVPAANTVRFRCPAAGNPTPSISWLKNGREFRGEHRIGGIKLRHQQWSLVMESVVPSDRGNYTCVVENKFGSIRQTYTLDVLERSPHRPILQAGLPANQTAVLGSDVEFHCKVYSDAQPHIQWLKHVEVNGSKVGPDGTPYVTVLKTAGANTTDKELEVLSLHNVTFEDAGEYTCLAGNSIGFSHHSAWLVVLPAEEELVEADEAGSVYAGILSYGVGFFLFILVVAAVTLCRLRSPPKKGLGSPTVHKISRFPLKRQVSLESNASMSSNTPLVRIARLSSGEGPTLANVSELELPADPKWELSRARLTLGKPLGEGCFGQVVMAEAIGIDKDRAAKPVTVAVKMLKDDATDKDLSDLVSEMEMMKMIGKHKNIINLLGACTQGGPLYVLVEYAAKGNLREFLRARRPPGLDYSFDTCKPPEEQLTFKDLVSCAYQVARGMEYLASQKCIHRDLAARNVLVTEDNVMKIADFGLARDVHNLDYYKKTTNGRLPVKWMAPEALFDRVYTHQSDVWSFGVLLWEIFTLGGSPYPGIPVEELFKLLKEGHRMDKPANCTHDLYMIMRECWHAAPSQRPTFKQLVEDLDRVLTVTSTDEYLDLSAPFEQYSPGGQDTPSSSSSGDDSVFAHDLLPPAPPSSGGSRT

## Cc1ccc2c(Nc3ccc(Cl)cc3)nccc2c1Nc1ncccc1-c1ncnc2[nH]cnc12.Cl.Cl.Cl
[1]
  IC50: 1000 nM
[2]
  Activity: 99%
[3]
  Activity: 87%
[4]
  Activity: 97%
[5]
  Activity: 100%
[6]
  Activity: 40%
[7]
  Activity: 100%
[8]
  Activity: 100%
[9]
  Activity: 100%
[10]
  Activity: 93%
[11]
  Activity: 40%
[12]
  Activity: 0%
[13]
  Activity: 64%
[14]
  Activity: 100%
[15]
  Activity: 92%
[16]
  Activity: 100%
[17]
  Activity: 0.45%
[18]
  Activity: 6.5%
[19]
  Activity: 100%
[20]
  Activity: 78%
[21]
  Activity: 100%
[22]
  Activity: 92%
[23]
  Activity: 92%
[24]
  Activity: 100%
[25]
  Activity: 6.6%
[26]
  Activity: 92%
[27]
  Activity: 92%
[28]
  Activity: 100%
[29]
  Activity: 98%
[30]
  Activity: 100%
[31]
  Activity: 95%
[32]
  Activity: 85%
[33]
  Activity: 100%
[34]
  Activity: 100%
[35]
  Activity: 92%
[36]
  Activity: 9.4%
[37]
  Activity: 2.2%
[38]
  Activity: 96%
